Measurements reported in ChEMBL document CHEMBL3507680, “University of Dundee, Gates Library screen for HepG2 cell viability”.

Test: Human HepG2 cell viability assay in 384 well format
Type: toxicity, cell-based
Set-up: dose 125 nL, time 70.5 hour; concentration not given beside the values
Conditions: HepG2 cells, read-out: Inhibition

COCC(=O)NC(CC(C)C)c1nc2cccnc2n1C (centres undefined)
cytotoxicity at 70.5 h: 20.7%

O=C(O)c1cc(-c2ccoc2)cc(S(=O)(=O)NCc2ccccn2)c1
cytotoxicity at 70.5 h: -8.18%

CCOc1nnc(CN(Cc2ccccc2)CC(O)c2ccco2)s1 (centres undefined)
cytotoxicity at 70.5 h: -10.6%

CNC(=O)Cn1ccc2ccc(NC(=O)C(C)CSC)cc21 (centres undefined)
cytotoxicity at 70.5 h: -5.03%

O=C(NCc1cc[nH]n1)N(CCCO)C1CCc2ccccc21 (centres undefined)
cytotoxicity at 70.5 h: -0.509%

CCCC(C)NC(=O)c1ccc(-c2ccco2)[nH]c1=O (centres undefined)
cytotoxicity at 70.5 h: -2.99%

CCc1nccn1C1CCCN(C(=O)c2cnn3ccc(C)nc23)C1 (centres undefined)
cytotoxicity at 70.5 h: -9.27%

COCCNC(=O)c1cc2c(s1)CCN2S(C)(=O)=O
cytotoxicity at 70.5 h: -6.66%

O=C(O)CCc1cc2n(n1)CCCN(C(=O)c1ccc(Cl)s1)C2
cytotoxicity at 70.5 h: -22.4%

CCn1cc(CN2CCCC(COc3ccccc3F)C2)cn1 (centres undefined)
cytotoxicity at 70.5 h: 10.5%

COC(=O)CNC(=O)C1(NC(=O)c2ccc3[nH]ncc3c2)CCCC1
cytotoxicity at 70.5 h: 0.707%

c1cnc(N2CCOC3(CCN(CC4CCCCC4)CC3)C2)nc1
cytotoxicity at 70.5 h: -4.82%

CS(=O)(=O)C1(CNCc2cccc(-n3cccn3)c2)CCOCC1
cytotoxicity at 70.5 h: 12.5%

CC(C)CCS(=O)(=O)N1CCCC(c2nncn2C(C)C)C1 (centres undefined)
cytotoxicity at 70.5 h: -33.9%

Cc1sc(-c2ccco2)nc1C(=O)NCC1CCOC1 (centres undefined)
cytotoxicity at 70.5 h: 1.39%

CCN(CC)S(=O)(=O)c1ccc(OC)c(NC(=O)CSC)c1
cytotoxicity at 70.5 h: 12.2%

Fc1ccccc1CN1CCCN(c2ccc3cc[nH]c3n2)CC1
cytotoxicity at 70.5 h: -4.59%

O=C1CCCC2=C1C(c1ccc(Cl)cc1Cl)Nc1nonc1N2 (centres undefined)
cytotoxicity at 70.5 h: -1.65%

CCC(=O)c1ccc(OCC(=O)NC(C)Cc2cc(C)n[nH]2)cc1 (centres undefined)
cytotoxicity at 70.5 h: -8.59%

CNS(=O)(=O)Cc1ccccc1CNc1ccc(C#N)cn1
cytotoxicity at 70.5 h: 22.4%

CCOCCN1CCN(Cc2nc(C3CC3)no2)CC1CC (centres undefined)
cytotoxicity at 70.5 h: 18.8%

Cc1cc2nc(C(C)C)cc(NCCNc3ncccc3C)n2n1
cytotoxicity at 70.5 h: 12.1%

CC(C)(C)C(=O)Cn1nc(C2CC2)cc(C(F)(F)F)c1=O
cytotoxicity at 70.5 h: -0.663%

Cn1ccc2cc(C(=O)N3CC[C@@]4(O)CCCC[C@H]4C3)ccc21
cytotoxicity at 70.5 h: -13.9%

CC(=O)N1CCC2(CC1)CN(C(=O)c1ccc3c(c1)OCO3)C2
cytotoxicity at 70.5 h: 5.17%

COc1ccc(CCNCc2c(C)nn(C)c2N(C)C)cc1OC
cytotoxicity at 70.5 h: -1.22%

COC(=O)C(C)(C)NC(=O)c1cc(COc2ccccc2OC)[nH]n1
cytotoxicity at 70.5 h: 10.6%

CCS(=O)(=O)N1CCC(Oc2ccc(C#N)cc2)CC1
cytotoxicity at 70.5 h: 24.1%

O=C1CC(c2cccnc2)C2(CCN(S(=O)(=O)C3CC3)CC2)N1 (centres undefined)
cytotoxicity at 70.5 h: -3.38%

COc1ccc(C(=O)NS(=O)(=O)c2ccc(C#N)cc2C(F)(F)F)cc1
cytotoxicity at 70.5 h: -16.9%

CCOC(=O)N1CCCC2(CCCNC2)C1 (centres undefined)
cytotoxicity at 70.5 h: -1.34%

CCc1cc(N(C)CCc2noc(C)n2)nc(N2CCOCC2)n1
cytotoxicity at 70.5 h: -7.76%

Cc1nc(CC(=O)NCCNc2nccc(C(F)(F)F)n2)cs1
cytotoxicity at 70.5 h: -6.39%

O=C(CN1C=Nc2ccccc2S1(=O)=O)NCCCc1ccccc1
cytotoxicity at 70.5 h: -12.6%

c1ncn(CC2CCCCN2Cc2noc(C3CC3)n2)n1 (centres undefined)
cytotoxicity at 70.5 h: 11.3%

CN(C)CC1CN(Cc2cc(Cl)cc3cccnc23)CCO1 (centres undefined)
cytotoxicity at 70.5 h: -9.09%

CCN(CC1CCCO1)S(=O)(=O)N1CCCCCC1 (centres undefined)
cytotoxicity at 70.5 h: -8.65%

N[C@@H]1CC[C@@H](Nc2nccc(CCC(F)(F)F)n2)C1
cytotoxicity at 70.5 h: -6.78%

NC(=O)C(Nc1cccc(CO)c1)c1ccc(Br)cc1 (centres undefined)
cytotoxicity at 70.5 h: 6.7%

Cc1cnn(CC2CCCN2C(=O)c2cccc(S(C)(=O)=O)c2)c1 (centres undefined)
cytotoxicity at 70.5 h: -2.98%

O=C(N[C@@H]1CN(Cc2cccc(F)c2)C[C@H]1O)c1cscn1
cytotoxicity at 70.5 h: -4.57%

COCCn1ccc(=O)c(OCC(=O)Nc2cccc(C(C)=O)c2)c1C
cytotoxicity at 70.5 h: -4.4%

CCc1cc(N2CCNCC2)n2nc(C)c(C)c2n1
cytotoxicity at 70.5 h: -3.36%

COCCn1ccnc1C1CCN(C(=O)C(O)c2ccc(F)cc2)CC1 (centres undefined)
cytotoxicity at 70.5 h: -5.34%

Cc1cccn2cc(CN3CCC(N4CCN(C)C4=O)CC3)nc12
cytotoxicity at 70.5 h: -6.74%

O=C(C1CCCC1)N1CCC(c2n[nH]c3nccnc23)CC1
cytotoxicity at 70.5 h: -1.92%

Cc1cccc(CN2C(=O)CCC23CCNCC3)n1
cytotoxicity at 70.5 h: -9.48%

COc1cccc(CN(C(=O)NC2CC2)C2CCC(O)CC2)c1 (centres undefined)
cytotoxicity at 70.5 h: -6.74%

N#Cc1ccnc(N2CCC(NCCN3CCOCC3)CC2)c1
cytotoxicity at 70.5 h: -2.14%

Oc1ccc(C2Nc3ccccc3C3=NCCCN32)cc1 (centres undefined)
cytotoxicity at 70.5 h: -2.33%

CC(C)OCCC(=O)Nc1ncn(CC(=O)N2CCCCCC2)n1
cytotoxicity at 70.5 h: -1.46%

CCOCC(=O)N1CCOCC2(CCN(c3ncccn3)C2)C1 (centres undefined)
cytotoxicity at 70.5 h: 2.44%

CC(=O)N1CC(C)CN(C(=O)c2cnccn2)c2ccccc21 (centres undefined)
cytotoxicity at 70.5 h: -12.2%

CNc1cc(C(=O)N2CCCCC2CCn2ccnc2C)ccn1 (centres undefined)
cytotoxicity at 70.5 h: -2.8%

Cc1cnc(N2C[C@H]3CCCC(N(C)Cc4ccccn4)[C@H]3C2)nc1 (some centres undefined)
cytotoxicity at 70.5 h: -9.85%

Cc1ccc(CC(=O)NC(C)C(=O)N2CCS(=O)(=O)CC2)s1 (centres undefined)
cytotoxicity at 70.5 h: -1.34%

Cc1ccc(CC(=O)N2CCOC(c3ncc(CN(C)C)[nH]3)C2)s1 (centres undefined)
cytotoxicity at 70.5 h: -6.18%

CN(C)C(=O)N1CCC2(CC1)COCCN(c1ncccn1)C2
cytotoxicity at 70.5 h: -3.19%

CCc1noc(CS(=O)(=O)C(C)c2nc(C3CC3)no2)n1 (centres undefined)
cytotoxicity at 70.5 h: 13.9%

CC(NC(=O)NCCNc1ncccn1)c1cccs1 (centres undefined)
cytotoxicity at 70.5 h: 1.09%

Cc1c(Cl)cccc1NC(=O)N1CCN(Cc2ccccn2)CC1
cytotoxicity at 70.5 h: -3.15%

Cc1cc(C)nc(NC2CC(=O)N(C)C2)n1 (centres undefined)
cytotoxicity at 70.5 h: -8.75%

COCCN(Cc1ccccc1)Cc1csc(-c2ncccn2)n1
cytotoxicity at 70.5 h: -4.86%

CN(C(=O)CCOc1ccccc1)C1CCN(CC2CCOC2)CC1 (centres undefined)
cytotoxicity at 70.5 h: -8.86%

CC/N=c1\nc(NCC)nc2n1C(O)(Nc1ccc(C)cc1C)CS2 (centres undefined)
cytotoxicity at 70.5 h: 4.88%

CN1CC[C@H]2[C@H](C[C@@H](Cn3cncn3)N2c2nccs2)C1
cytotoxicity at 70.5 h: -8.05%

CCc1nc(CN2CCCN(CC(=O)Nc3cccnc3)CC2)no1
cytotoxicity at 70.5 h: 8.11%

COCCCNC(=O)Nc1cc(-c2ccccc2C)nn1CCO
cytotoxicity at 70.5 h: -5.71%

Cc1nc2oc(C(=O)N3CCCC3)c(N)c2c2c1CCCC2
cytotoxicity at 70.5 h: -16.9%

Fc1cccc(-c2nnn3c2COC(CNCc2ccsc2)C3)c1 (centres undefined)
cytotoxicity at 70.5 h: 0.277%

COc1ccc(CN2C[C@@H](CN(C)C)[C@@H](CO)C2)cc1OC
cytotoxicity at 70.5 h: -3.1%

O=C(NCC(O)(c1ccco1)C1CC1)c1ccccc1F (centres undefined)
cytotoxicity at 70.5 h: -14.8%

Cc1ccc(CNC(=O)NCCCn2nc3ccccn3c2=O)s1
cytotoxicity at 70.5 h: 30.2%

CCc1nc(CCNC(=O)NC2CCSCC2)cs1
cytotoxicity at 70.5 h: 5.18%

O=C(NC1CC1)N(CCc1ccccc1)C1CCOC1 (centres undefined)
cytotoxicity at 70.5 h: 12.1%

COCCN1CC[C@@H](O)[C@@H]1Cc1ccccc1
cytotoxicity at 70.5 h: -16.9%

Cc1nccc(CNC(=O)NC(c2ncc(C)s2)C2CC2)n1 (centres undefined)
cytotoxicity at 70.5 h: 17.4%

CC(=O)NCc1ccc(-n2ccnc2C)nc1
cytotoxicity at 70.5 h: -14.4%

CN(C)Cc1nnc2n1CCN(Cc1ccccn1)CC2
cytotoxicity at 70.5 h: -10.5%

CCc1nc(-c2ccc(NC(=O)N3CCCC3)cc2)no1
cytotoxicity at 70.5 h: -19.3%

COc1nc(C)c(C(=O)N2CCc3[nH]nc(C4CCCC4)c3C2)s1
cytotoxicity at 70.5 h: -2%

Cc1nc(CN2CCc3ncnc(-c4ccsc4)c3CC2)cs1
cytotoxicity at 70.5 h: -9.47%

NC(=O)Nc1cccc(F)c1C(=O)NC1CCCC1
cytotoxicity at 70.5 h: -3.68%

Cc1cccc(CN(Cc2ccccn2)S(=O)(=O)N(C)C(C)C)c1
cytotoxicity at 70.5 h: -14%

CCn1ccnc1CN(C)c1nc(-c2ccc(Cl)cc2)nc2c1CNC2
cytotoxicity at 70.5 h: -9.22%

COCCNC(=O)CN(C)CCn1nc2ccccn2c1=O
cytotoxicity at 70.5 h: -5.55%

Cn1cccc1C(=O)N1CC[C@@]2(O)CCN(S(C)(=O)=O)C[C@H]2C1
cytotoxicity at 70.5 h: -6.36%

CCCc1cnc(C)nc1N1CCC(Cn2cc(CN(C)C)nn2)CC1
cytotoxicity at 70.5 h: -6.13%

O=C(CSc1ccc2c(c1)OCCO2)NS(=O)(=O)c1ccccc1
cytotoxicity at 70.5 h: -8.6%

c1ccc(CN2CCc3ncnc(-c4ccsc4)c3CC2)nc1
cytotoxicity at 70.5 h: -12.4%

O=C(O)COCC(=O)NC1CC2(CCCCC2)Oc2ccccc21 (centres undefined)
cytotoxicity at 70.5 h: 18.3%

Cc1nnc(CN(C)S(=O)(=O)c2ccc(Br)cc2Cl)n1C
cytotoxicity at 70.5 h: -8.93%

Cc1cccc(CN2C[C@@H]3CN(C(=O)c4conc4C)C[C@@H]3C2=O)c1
cytotoxicity at 70.5 h: -3.16%

Cn1cc(NC(=O)C2CC(c3ccccc3)C2)ccc1=O (centres undefined)
cytotoxicity at 70.5 h: -15.7%

CCOc1cc(CNCc2ncc[nH]2)c(Cl)cc1OC(C)C
cytotoxicity at 70.5 h: 20.6%

O=C([C@H]1C[C@H]2OCC[C@H]2N(CC2CCOCC2)C1)N1CCCCO1
cytotoxicity at 70.5 h: -7.91%

c1cnn(C2CN(CCCOc3ccc4c(c3)OCO4)C2)c1
cytotoxicity at 70.5 h: 11.1%

O=C(Cn1nc(-c2ccc(F)cc2)oc1=O)NCCc1ccccc1
cytotoxicity at 70.5 h: -10.7%

CC(=O)N1[C@H](Cn2cncn2)C[C@@H]2CN(Cc3cccnc3)CC[C@@H]21
cytotoxicity at 70.5 h: -2.89%

COc1cc(N2CCC3(CC2)CN(C)C(=O)CO3)ncn1
cytotoxicity at 70.5 h: 16.1%

COC(=O)c1ccc(CNCc2cn(C)nc2C)cc1
cytotoxicity at 70.5 h: 1.28%

CC(C)(NC(=O)c1ccc(-c2ccccc2F)s1)C(N)=O
cytotoxicity at 70.5 h: 12.6%

O=C(c1ccno1)N1CCO[C@]2(CCC[C@@H]2COCc2ccncc2)C1
cytotoxicity at 70.5 h: -2.51%

O=C(CCNC(=O)C1CCCC1)NCc1ccccc1Cn1cncn1
cytotoxicity at 70.5 h: -7.76%

CC1(Cc2ccc3c(c2)OCO3)CCCN(S(=O)(=O)N2CCOCC2)C1 (centres undefined)
cytotoxicity at 70.5 h: -6.32%

NC(=O)CN1CCCN(C(=O)c2ccn(-c3cccc(F)c3)n2)CC1
cytotoxicity at 70.5 h: -7.11%

Cn1c(C(=O)N2CC[C@@]3(O)CCCC[C@H]3C2)cc2ccccc21
cytotoxicity at 70.5 h: -3.98%

Cc1noc(C)c1-c1cccc(C2CN(CC(=O)N(C)C)CCO2)n1 (centres undefined)
cytotoxicity at 70.5 h: -4.85%

O=C(Cc1ccsc1)N1CCn2cc(CN3CCCC3)nc2C1
cytotoxicity at 70.5 h: -5.43%

O=C(c1cccc(Cn2ccnc2)c1)N1CCCC(n2ccnc2)C1 (centres undefined)
cytotoxicity at 70.5 h: -16.1%

N#CC1(C(=O)N2CCOC(c3ccc(F)cc3)C2)CCCCC1 (centres undefined)
cytotoxicity at 70.5 h: -9.88%

CCc1csc(C2CCCN(C(=O)c3cnc[nH]3)C2)n1 (centres undefined)
cytotoxicity at 70.5 h: -7.63%

Cc1cccc(C)c1NC(=O)c1cccc(N(C)S(C)(=O)=O)c1C
cytotoxicity at 70.5 h: -14.1%

Cc1noc(NC(=O)CCNC(=O)c2ccc(Br)cc2)n1
cytotoxicity at 70.5 h: 14.6%
